Measured values from patent publication US20230218573A1, “INDOLE COMPOUNDS FOR THE TREATMENT OF NEURODEGENERATIVE DISEASES” (GALYAN BIO, INC., priority 2020, published 2023).
“Also recorded” adds a separate entry of the source.

How the values were obtained:
[1] = test system: R6/2 mice of Huntington's disease; assay: Rotarod latency in R6/2 mice; format: in vivo; conditions: for rotarod performance versus vehicle treated R6/2 mice: 33 mg/kg i.p. QD
Protocol: (§1) Methods - Total of 20 female and male R6/2 mice and 10 female and male wild-type littermate control mice (WT) were used in the study. The mice were genotyped and the R6/2 mice were divided into different treatment groups based on their litter and baseline body weight. The treatment with Vehicle or Compound 22(33 mg/kg; 5 ml/kg, i.p. QD) was started at 4 weeks of age after the baseline behavioral tests (FIG. 10). Body weights were measured at 3 weeks of age and twice a week until the end of the study.
The experimental groups were: • Group 1) 10 wild-type mice (mixed gender) treated with Vehicle (5 ml/kg, i.p., QD) starting at 4 weeks of age • Group 2) 10 R6/2 mice (mixed gender) treated with Vehicle (5 ml/kg, i.p., QD) starting at 4 weeks of age • Group 3) 10 R6/2 mice (mixed gender) treated with Compound 22 (33 mg/kg; 5 ml/kg, i.p. QD) starting at 4 weeks of age
44.3.7 - Compound Delivery and Dosing - Treatment with Compound 22 (33 mg/kg; 5 ml/kg, i.p. QD) or Vehicle was started at age week 4 and continued until the 12 weeks of age. The test articles were handled and stored and the dose formulations were prepared according to detailed instructions provided by the Sponsor.
44.3.9.1 - Rotarod - The Rotarod test was perfomed at 4 (pre-treatment baseline), 6, 8 and 10 weeks of age. Each testing day included a training trial of 5 min at 4 RPM on the Rotarod apparatus (AccuScan Instruments, Columbus, USA). 30 minutes later, the animals were tested for 3 consecutive accelerating trials of 6 min with the speed changing from 0 to 40 RPM over 360 seconds and with an inter-trial interval of at least 30 min. The latency to fall from the rod was recorded. Mice remaining on the rod for more than 360 s were removed and their time scored as 360 sec.
10 female R6/2 mice and 10 female wild-type littermate control mice (F1 generation) were bred by Charles River Laboratories, Sulzfeld, Germany by mating (F0 generation) WT males (C57BL/6J; systematically re-infused with pedigreed JAX mice, stock 000664) with ovarian transferred (OT) TG females (JAX, stock 006494). […]

Olig2 = assay: Nanostring gene expression in STHdh 111/111 cells: Olig2; format: cell-based, mouse; conditions: treated STHdh 111/111 (Q111-10), 48 h; in comparison to untreated STHdh 111/111
Protocol: (§2) Gene expression of certain transcripts of interest were measured using Nanostring Technology. […] Some STHdh 7/7 and STHdh 111/111 cell samples were not heat shocked and some wells were treated with Compound 22 at the indicated concentration on for 48 hours (Table 12). Some STHdh 7/7 and STHdh 111/111 cell samples were heat shocked for 3 hours some wells were treated with Compound 22 at the indicated concentration on for 48 hours (Table 13). Cells are washed with PBS, trypsinised, and gathered in a 15 ml falcon tube. After a short spin down for 3 minutes at 300 g, the cell pellet was washed with PBS once, before it was frozen down in liquid nitrogen. RNA was extracted with a standard protocol. The nCounter® Mouse Neuropathology Panel (Nanostring, Seattle) was used for gene expression analysis according to the manufacturer’s protocols.

[2] = test system: R6/2 mice of Huntington's disease; assay: Grip strength in R6/2 mice; format: in vivo; conditions: 33 mg/kg i.p. QD; 4-12 weeks of age
Protocol: as §1
The experimental groups were: • Group 1) 10 wild-type mice (mixed gender) treated with Vehicle (5 ml/kg, i.p., QD) starting at 4 weeks of age • Group 2) 10 R6/2 mice (mixed gender) treated with Vehicle (5 ml/kg, i.p., QD) starting at 4 weeks of age • Group 3) 10 R6/2 mice (mixed gender) treated with Compound 22 (33 mg/kg; 5 ml/kg, i.p. QD) starting at 4 weeks of age […]
Mice were taken to the experimental room and, one at a time, were placed on the grip strength apparatus (San Diego Instruments, San Diego, USA) in such a way that the animal grabbed a small mesh grip with its forepaws. […] Five scores were recorded per animal in consecutive sequence, and the average of three best scores for each animal was used for the results. […]

[3] = test system: STHdh 111/111 striatal cells; assay: Cell viability (CellTiter Glo) of heat shocked STHdh 111/111 striatal cells; format: cell-based, mouse
Protocol: Cell culture - ST HDH Q111/111 (CH00095, Coriell Institute) striatal derived cell line were grown at 33° C. in DMEM (Sigma-Aldrich), supplemented with 10% fetal bovine serum (FBS), 1% Penicillin-Streptomycin (ThermoFisher Scientific), and 0.4 mg/ml G418 (Geneticin; Invitrogen). ST HDH Q111/111 are mouse striatal cells with polyQ length of 1111.
Pre-Treatment of striatal cell line - First the medium was removed and new DMEM (DMEM, high glucose, HEPES, no phenol red) medium, supplemented with 10% fetal bovine serum (FBS), 1% Penicillin-Streptomycin, containing 10 µM compound was added. The cells were incubated at 33° C. for 24 hours.
Heat shock - Cells were heat shocked for 3 hours at 41° C.
Treatment - Medium was removed and new DMEM (DMEM, high glucose, HEPES, no phenol red) medium, supplemented with 1% fetal bovine serum (FBS), 1% Penicillin-Streptomycin, containing 10 µM compound was added. The cells were incubated at 33° C. for 48 hours.
Cell Viability - Cell viability was measured according to manufacturer recommendations with CellTiter Glo (Promega). 96-well plates for used either for cell viability determination or cell staining.

Slc32a1 = assay: Nanostring gene expression in STHdh 111/111 cells: Slc32a1; format: cell-based, mouse; conditions: treated STHdh 111/111 (Q111-10), 48 h; in comparison to untreated STHdh 111/111
Protocol: as §2

[4] = Microsomal stability in humans; format: in vitro ADME; conditions: humans versus mice
Exon1 Q46 protein = target: T1, Exon1 Q46 protein (Homo sapiens, UniProt P42858, INS38QQQQQQQQQQQQQQQQQQQQQQQQQ); assay: Kd to Exon1 Q46 protein; format: binding
T1 construct: fused on or other part: E. coli thioredoxin (TRX) at the N-terminus as a solubility handle; linker […]; C-terminal GSG-His6 tag
T1 sequence (P42858 whole entry, looked up, stated change not applied, the tested form may be a part): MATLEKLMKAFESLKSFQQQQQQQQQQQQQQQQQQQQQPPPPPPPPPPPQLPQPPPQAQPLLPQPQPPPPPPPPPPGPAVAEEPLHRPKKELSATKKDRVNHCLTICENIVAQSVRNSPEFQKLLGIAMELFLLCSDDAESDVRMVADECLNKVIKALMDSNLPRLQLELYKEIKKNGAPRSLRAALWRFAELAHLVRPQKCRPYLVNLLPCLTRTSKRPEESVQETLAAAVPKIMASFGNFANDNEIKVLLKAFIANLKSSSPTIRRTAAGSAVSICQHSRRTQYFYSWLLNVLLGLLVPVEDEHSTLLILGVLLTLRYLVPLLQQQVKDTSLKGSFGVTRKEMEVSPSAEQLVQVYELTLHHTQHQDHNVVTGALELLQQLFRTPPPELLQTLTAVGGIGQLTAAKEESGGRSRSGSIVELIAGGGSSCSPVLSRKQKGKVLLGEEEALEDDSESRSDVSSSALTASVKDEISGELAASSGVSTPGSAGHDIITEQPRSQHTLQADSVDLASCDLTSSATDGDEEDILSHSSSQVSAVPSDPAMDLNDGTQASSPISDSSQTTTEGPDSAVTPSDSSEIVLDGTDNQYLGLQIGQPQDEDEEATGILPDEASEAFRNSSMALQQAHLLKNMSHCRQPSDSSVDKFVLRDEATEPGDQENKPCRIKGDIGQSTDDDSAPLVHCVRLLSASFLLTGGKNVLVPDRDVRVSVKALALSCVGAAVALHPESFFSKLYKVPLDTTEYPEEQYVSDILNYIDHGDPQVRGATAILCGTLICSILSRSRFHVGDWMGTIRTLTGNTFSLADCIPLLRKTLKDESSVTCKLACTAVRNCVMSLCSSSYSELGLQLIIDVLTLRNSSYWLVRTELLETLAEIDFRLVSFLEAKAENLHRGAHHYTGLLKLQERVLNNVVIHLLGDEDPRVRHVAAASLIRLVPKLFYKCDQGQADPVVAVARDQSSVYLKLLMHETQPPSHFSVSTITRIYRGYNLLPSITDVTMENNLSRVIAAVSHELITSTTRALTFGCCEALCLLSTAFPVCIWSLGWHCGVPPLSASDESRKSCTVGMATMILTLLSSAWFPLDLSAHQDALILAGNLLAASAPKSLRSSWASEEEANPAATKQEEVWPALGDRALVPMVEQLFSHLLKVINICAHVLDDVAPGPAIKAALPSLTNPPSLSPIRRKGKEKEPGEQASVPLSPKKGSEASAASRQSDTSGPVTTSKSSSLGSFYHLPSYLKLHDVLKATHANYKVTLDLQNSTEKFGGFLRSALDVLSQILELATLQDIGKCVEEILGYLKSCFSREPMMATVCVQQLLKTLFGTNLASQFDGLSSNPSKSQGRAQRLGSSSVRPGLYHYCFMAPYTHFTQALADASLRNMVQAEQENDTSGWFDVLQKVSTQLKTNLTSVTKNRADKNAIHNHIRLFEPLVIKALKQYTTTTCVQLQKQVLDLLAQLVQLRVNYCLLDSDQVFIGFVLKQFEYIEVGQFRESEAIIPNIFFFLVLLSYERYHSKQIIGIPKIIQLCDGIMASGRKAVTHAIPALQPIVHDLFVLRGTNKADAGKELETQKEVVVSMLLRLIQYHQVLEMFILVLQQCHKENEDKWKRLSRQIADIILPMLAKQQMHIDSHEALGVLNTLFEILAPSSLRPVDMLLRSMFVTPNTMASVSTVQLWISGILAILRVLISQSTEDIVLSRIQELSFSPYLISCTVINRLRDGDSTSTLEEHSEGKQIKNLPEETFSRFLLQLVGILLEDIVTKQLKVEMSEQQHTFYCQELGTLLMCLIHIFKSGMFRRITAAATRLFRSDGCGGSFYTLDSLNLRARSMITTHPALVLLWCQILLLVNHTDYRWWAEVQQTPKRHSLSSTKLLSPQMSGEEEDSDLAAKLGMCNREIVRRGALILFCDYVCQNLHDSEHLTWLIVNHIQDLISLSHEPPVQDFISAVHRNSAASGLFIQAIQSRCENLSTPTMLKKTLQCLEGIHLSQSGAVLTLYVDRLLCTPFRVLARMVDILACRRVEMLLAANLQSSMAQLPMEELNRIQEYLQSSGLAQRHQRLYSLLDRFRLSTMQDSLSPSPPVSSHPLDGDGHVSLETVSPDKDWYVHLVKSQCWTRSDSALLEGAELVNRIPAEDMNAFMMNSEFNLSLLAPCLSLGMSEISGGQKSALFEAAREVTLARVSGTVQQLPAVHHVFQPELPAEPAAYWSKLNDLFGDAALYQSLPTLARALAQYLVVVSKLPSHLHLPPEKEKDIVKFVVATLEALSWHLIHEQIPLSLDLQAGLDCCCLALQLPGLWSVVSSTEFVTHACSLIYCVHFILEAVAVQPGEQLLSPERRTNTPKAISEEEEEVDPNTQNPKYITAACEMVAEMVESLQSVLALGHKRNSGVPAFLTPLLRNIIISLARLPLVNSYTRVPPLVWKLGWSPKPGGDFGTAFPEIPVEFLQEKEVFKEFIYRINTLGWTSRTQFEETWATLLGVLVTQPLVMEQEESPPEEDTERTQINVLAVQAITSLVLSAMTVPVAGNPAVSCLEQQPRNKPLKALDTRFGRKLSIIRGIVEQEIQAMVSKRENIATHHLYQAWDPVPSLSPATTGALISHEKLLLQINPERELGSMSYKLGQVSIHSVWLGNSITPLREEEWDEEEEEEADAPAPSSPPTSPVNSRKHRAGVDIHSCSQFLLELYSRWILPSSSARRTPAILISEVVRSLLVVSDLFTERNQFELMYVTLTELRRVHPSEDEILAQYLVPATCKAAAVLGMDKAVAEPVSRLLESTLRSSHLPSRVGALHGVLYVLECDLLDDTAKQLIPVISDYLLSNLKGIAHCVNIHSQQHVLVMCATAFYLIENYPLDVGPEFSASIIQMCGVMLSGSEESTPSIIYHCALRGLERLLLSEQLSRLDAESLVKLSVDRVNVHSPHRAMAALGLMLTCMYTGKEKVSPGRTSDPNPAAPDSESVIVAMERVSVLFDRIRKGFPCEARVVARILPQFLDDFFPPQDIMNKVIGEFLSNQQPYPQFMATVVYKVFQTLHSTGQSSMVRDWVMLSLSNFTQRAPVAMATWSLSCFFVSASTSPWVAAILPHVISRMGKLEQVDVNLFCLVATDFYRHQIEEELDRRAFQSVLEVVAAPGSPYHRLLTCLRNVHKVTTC

[5] = Microsomal stability in mice; format: in vitro ADME
NGFR = assay: Nanostring gene expression in STHdh 111/111 cells: NGFR; format: cell-based, mouse; conditions: treated STHdh 111/111 (Q111-10), 48 h; in comparison to untreated STHdh 111/111
Protocol: as §2

Cc1[nH]c2ccc(C(=O)NCCN(C(C)C)C(C)C)cc2c1C [Compound 22]
improvement of latency to fall in comparison to untreated model mice ([1]; R6/2 mice, 10 weeks of age): 94%
rotarod performance versus vehicle treated R6/2 mice ([1]; female R6/2 mice, 10 weeks of age, 33 mg/kg): significantly improved rotarod performance; also recorded: almost doubled the latency to fall
rotarod performance versus vehicle treated R6/2 mice ([1]; pooled genders or males): no significant differences
Olig2 expression (Olig2): doubled
grip strength versus vehicle treated R6/2 mice [2]: no significant differences
viability at 10 µM ([3]; Mus musculus, STHdh 111/111, 10 µM, 48 hours treatment, read-out: Cell Viability striatal cells 3h heat shocked): 102%
cell viability in comparison to pre-heat shock cell viability ([3]; STHdh 111/111, 48 hours after 3 hours heat shock): 125%
cell viability at 24 hours after treatment ([3]; STHdh 111/111 after heat shock, versus STHdh 7/7 control cells): almost equivalent to the cell viability of STHdh 7/7 control cells
Slc32a1 expression upregulated (Slc32a1): 12 fold
microsomal stability in humans in comparison to mice [4]: 20 times
Kd (Exon1 Q46 protein): 700 nM
microsomal stability [5]: short
NGFR expression increased by (NGFR): 60%
